In the experiment the test system is weeds. Kind of experiment: Glasshouse weed control by HST/HPPD (mesotrione) mixtures, pre-emergence. Conditions: 1 g/ha, N = 3. The format is in vivo. On the procedure:
Weed seeds are planted out in trays containing suitable soil (for example 50% peat, 50% John Innes soil no 3) and grown in the glass house conditions under 24-27° C. day; 18-21° C. night and approximately a 14 h (or longer in UK summer) photoperiod. Humidity is ˜65% and light levels up to 2000 μmol/m^2 at bench level. Trays are sprayed with test chemicals dissolved in water with 0.2-0.25% X-77 surfactant and sprayed from a boom on a suitable track sprayer moving at about 2 mph in a suitable track sprayer (for example a DeVries spray chamber with the nozzle about 2 inches from the plant tops). Spray volume is suitably 500-1000 l/ha. Sprays are carried out both pre-emergence and over small plants at about 7-12 d post-emergence
Plants are assessed 14 DAT and herbicidal damage is scored on a scale from 0 to 100%. The HST inhibitor compound 2.30 (designated compound A in table 16 and 17), haloxydine (compound 1.1) and compound 2.13 (designated compound AE in tables 16 and 17) are sprayed at rates between 0 and 500 g/ha.

Take `CS(=O)(=O)c1ccc(C(=O)C2C(=O)CCCC2=O)c([N+](=O)[O-])c1` [Mesotrione, mesotrione, reference compound]: the “% Damage at 14 DAA, mesotrione alone” value is, setting by setting: (ALOMY) 0%; (AMARE) 2%; (ECHCG) 0%; (IPOHE) 0%; (SETFA) 0%; (SOLNI) 17%.

Values taken from patent publication US20110173718A1, “HERBICIDE TOLERANT PLANTS” (SYNGENTA CROP PROTECTION, INC., priority 2008, published 2011).
